Experimental data published in patent publication US7338958B2, “Sulfoximine-substituted pyrimidines as CDK-and/or VEGF inhibitors, their production and use as pharmaceutical agents” (Schering AG, priority 2003, dated 2008).

Tests used:
[1] = system: MCF7, hormone-independent human breast cancer cells; assay: Proliferation assay, MCF7; type: cell-based; settings: MCF7, 96 h, 4 days incubation, crystal violet
Excerpt: (§1) Cultivated human tumor cells (MCF7, hormone-independent human breast cancer cells, related to ATCC HTB22; NCI-H460, human non-small-cell lung cancer cells, ATCC HTB-177, HCT 116, human colon cancer cells, ATCC CCL-247; DU 145, hormone-independent human prostate cancer cells, ATCC HTB-81; MaTu-MDR, hormone-independent, multiple pharmaceutical agent-resistant human breast cancer cells, EPO-GmbH, Berlin) were flattened out at a density of about 5000 cells/measuring point, depending on the growth rate of the respective cells, in a 96-well multititer plate in 200 μl of the corresponding growth medium. After 24 hours, the cells of one plate (zero-point plate) were colored with crystal violet (see below), while the medium of the other plates was replaced by fresh culture medium (200 μl), to which the test substances were added in various concentrations (0 μm, as well as in the range of 0.01-30 μm; the final concentration of the solvent dimethyl sulfoxide was 0.5%). The cells were incubated for 4 days in the presence of test substances. The cell proliferation was determined by coloring the cells with crystal violet: the cells were fixed by adding 20 μl/measuring point of an 11% glutaric aldehyde solution for 15 minutes at room temperature. After three washing cycles of the fixed cells with water, the plates were dried at room temperature. The cells were colored by adding 100 μl/measuring point of a 0.1% crystal violet solution (the pH was set at 3 by adding acetic acid). After three washing cycles of the colored cells with water, the plates were dried at room temperature. The dye was dissolved by adding 100 μl/measuring point of a 10% acetic acid solution. The extinction was determined by photometry at a wavelength of 595 nm. The change of cell growth, in percent, was calculated by normalization of the measured values to the extinction values of the zero-point plate (=0%) and the extinction of the untreated (0 μm) cells (=100%).

[2] = system: NCI-H460, human non-small-cell lung cancer cells; assay: Proliferation assay, H460; type: cell-based; settings: NCI-H460, 96 h, 4 days incubation, crystal violet
Excerpt: as §1

[3] = system: DU 145, hormone-independent human prostate cancer cells; assay: Proliferation assay, DU145; type: cell-based; settings: DU-145, 96 h, 4 days incubation, crystal violet
Excerpt: as §1

MaTu-ADR = assay: Proliferation assay, MaTu-ADR; type: cell-based; settings: Homo sapiens, 96 h, MaTu-ADR cells, 4 days incubation, crystal violet
Excerpt: as §1

CDK2/CycE = target: T1, CDK2/CycE (Homo sapiens, UniProt P24941); assay: CDK2/CycE Kinase Assay; type: biochemical; settings: histone IIIS substrate, 33P-ATP, 15 minutes at 22° C.
T1 construct: GST; purchased ProQinase GmbH, Freiburg; host or cells: baculovirus-infected insect cells (Sf9)
Procedure: Recombinant CDK2- and CycE-GST-fusion proteins, purified from baculovirus-infected insect cells (Sf9), were purchased by ProQinase GmbH, Freiburg. Histone IIIs, which was used as a kinase substrate, was purchased by the Sigma Company.
CDK2/CycE (50 ng/measuring point) was incubated for 15 minutes at 22° C. in the presence of various concentrations of test substances (0 μm, as well as within the range of 0.01-100 μm) in assay buffer [50 mmol of tris/HCl, pH 8.0, 10 mmol of MgCl2, 0.1 mmol of Na ortho-vanadate, 1.0 mmol of dithiothreitol, 0.5 μm of adenosine triphosphate (ATP), 10 μg/measuring point of histone IIIS, 0.2 μCi/measuring point of ^33P-gamma ATP, 0.05% NP40, 12.5% dimethyl sulfoxide]. The reaction was stopped by adding EDTA solution (250 mmol, pH 8.0, 14 μl/measuring point).
(§2) From each reaction batch, 10 μl was applied to P30 filter strips (Wallac Company), and non-incorporated ^33P-ATP was removed by subjecting the filter strips to three washing cycles for 10 minutes each in 0.5% phosphoric acid. After the filter strips were dried for one hour at 70° C., the filter strips were covered with scintillator strips (MeltiLex™ A, Wallac Company) and baked for one hour at 90° C. The amount of incorporated ^33P (substrate phosphorylation) was determined by scintillation measurement in a gamma-radiation measuring device (Wallac).

CDK1/CycB = target: T2, CDK1/CycB (Homo sapiens, UniProt P06493); assay: CDK1/CycB Kinase Assay; type: biochemical; settings: histone IIIS substrate, 33P-ATP, 15 minutes at 22° C.
T2 construct: GST; purchased ProQinase GmbH, Freiburg; host or cells: baculovirus-infected insect cells (Sf9)
Procedure: Recombinant CDK1- and CycB-GST-fusion proteins, purified from baculovirus-infected insect cells (Sf9), were purchased from ProQinase GmbH, Freiburg. Histone IIIS, used as a kinase substrate, is available commercially from the Sigma Company.
The reaction was stopped by adding EDTA solution (250 mmol, pH 8.0, 14 μl/measuring point).
as §2, with “33P-ATP” for “^33P-ATP”, “33P” for “^33P”

[4] = target: T3, VEGF receptor tyrosine kinase-2 (Homo sapiens, UniProt P35968); assay: VEGF Receptor-2 Kinase Assay; type: biochemical; settings: poly-(Glu4Tyr) substrate, 33P-ATP, 10 minutes at 22° C.; read-out: VEGF-R2 IC50
T3 construct: GST; made in house; host or cells: baculovirus-infected insect cells (Sf9)
Procedure: VEGF Receptor-2 Kinase Assay
Recombinant VEGF receptor tyrosine kinase-2 was purified as a GST fusion protein from baculovirus-infected insect cells (Sf9). Poly-(Glu4Tyr), which was used as a kinase substrate, was purchased by the Sigma Company.
VEGF receptor tyrosine kinase (90 ng/measuring point) was incubated for 10 minutes at 22° C. in the presence of various concentrations of test substances (0 μm, as well as within the range of 0.001-30 μm) in 30 μl of assay buffer [40 mmol of Tris/HCl, […], 10 mmol of MgCl2, 1 mmol of MnCl2, 3 μmol of Na ortho-vanadate, 1.0 mmol of dithiothreitol, 8 μmol of adenosine trisphosphate (ATP), 27 μg/measuring point of poly-(Glu4Tyr), 0.2 μCi/measuring point of 33P-gamma ATP, 1% dimethyl sulfoxide]. The reaction was stopped by adding EDTA solution (250 mmol, pH 7.0, 10 μl/measuring point).
as §2, with “33P-ATP” for “^33P-ATP”, “33P” for “^33P”

T2 sequence (P06493 whole entry): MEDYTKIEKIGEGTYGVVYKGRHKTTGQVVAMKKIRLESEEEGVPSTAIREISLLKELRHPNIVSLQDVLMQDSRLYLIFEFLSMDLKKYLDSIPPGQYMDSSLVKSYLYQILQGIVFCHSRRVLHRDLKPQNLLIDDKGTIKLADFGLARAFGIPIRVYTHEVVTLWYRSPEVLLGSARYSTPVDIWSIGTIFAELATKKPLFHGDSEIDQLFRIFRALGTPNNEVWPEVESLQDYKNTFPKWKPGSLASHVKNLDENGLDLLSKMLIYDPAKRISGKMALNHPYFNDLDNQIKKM
T2 sequence (P14635 whole entry partner): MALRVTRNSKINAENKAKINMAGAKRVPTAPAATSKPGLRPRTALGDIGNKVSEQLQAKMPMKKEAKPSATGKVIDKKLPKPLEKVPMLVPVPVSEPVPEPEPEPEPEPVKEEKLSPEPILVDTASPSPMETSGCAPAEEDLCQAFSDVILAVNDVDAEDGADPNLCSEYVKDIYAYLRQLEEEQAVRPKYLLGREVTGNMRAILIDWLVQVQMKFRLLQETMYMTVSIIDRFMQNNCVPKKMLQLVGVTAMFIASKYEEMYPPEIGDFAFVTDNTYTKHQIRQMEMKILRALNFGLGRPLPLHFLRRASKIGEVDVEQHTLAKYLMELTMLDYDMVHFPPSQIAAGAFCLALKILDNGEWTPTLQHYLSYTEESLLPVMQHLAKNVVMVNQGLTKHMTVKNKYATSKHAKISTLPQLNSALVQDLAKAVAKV
T3 sequence (P35968 20-1356): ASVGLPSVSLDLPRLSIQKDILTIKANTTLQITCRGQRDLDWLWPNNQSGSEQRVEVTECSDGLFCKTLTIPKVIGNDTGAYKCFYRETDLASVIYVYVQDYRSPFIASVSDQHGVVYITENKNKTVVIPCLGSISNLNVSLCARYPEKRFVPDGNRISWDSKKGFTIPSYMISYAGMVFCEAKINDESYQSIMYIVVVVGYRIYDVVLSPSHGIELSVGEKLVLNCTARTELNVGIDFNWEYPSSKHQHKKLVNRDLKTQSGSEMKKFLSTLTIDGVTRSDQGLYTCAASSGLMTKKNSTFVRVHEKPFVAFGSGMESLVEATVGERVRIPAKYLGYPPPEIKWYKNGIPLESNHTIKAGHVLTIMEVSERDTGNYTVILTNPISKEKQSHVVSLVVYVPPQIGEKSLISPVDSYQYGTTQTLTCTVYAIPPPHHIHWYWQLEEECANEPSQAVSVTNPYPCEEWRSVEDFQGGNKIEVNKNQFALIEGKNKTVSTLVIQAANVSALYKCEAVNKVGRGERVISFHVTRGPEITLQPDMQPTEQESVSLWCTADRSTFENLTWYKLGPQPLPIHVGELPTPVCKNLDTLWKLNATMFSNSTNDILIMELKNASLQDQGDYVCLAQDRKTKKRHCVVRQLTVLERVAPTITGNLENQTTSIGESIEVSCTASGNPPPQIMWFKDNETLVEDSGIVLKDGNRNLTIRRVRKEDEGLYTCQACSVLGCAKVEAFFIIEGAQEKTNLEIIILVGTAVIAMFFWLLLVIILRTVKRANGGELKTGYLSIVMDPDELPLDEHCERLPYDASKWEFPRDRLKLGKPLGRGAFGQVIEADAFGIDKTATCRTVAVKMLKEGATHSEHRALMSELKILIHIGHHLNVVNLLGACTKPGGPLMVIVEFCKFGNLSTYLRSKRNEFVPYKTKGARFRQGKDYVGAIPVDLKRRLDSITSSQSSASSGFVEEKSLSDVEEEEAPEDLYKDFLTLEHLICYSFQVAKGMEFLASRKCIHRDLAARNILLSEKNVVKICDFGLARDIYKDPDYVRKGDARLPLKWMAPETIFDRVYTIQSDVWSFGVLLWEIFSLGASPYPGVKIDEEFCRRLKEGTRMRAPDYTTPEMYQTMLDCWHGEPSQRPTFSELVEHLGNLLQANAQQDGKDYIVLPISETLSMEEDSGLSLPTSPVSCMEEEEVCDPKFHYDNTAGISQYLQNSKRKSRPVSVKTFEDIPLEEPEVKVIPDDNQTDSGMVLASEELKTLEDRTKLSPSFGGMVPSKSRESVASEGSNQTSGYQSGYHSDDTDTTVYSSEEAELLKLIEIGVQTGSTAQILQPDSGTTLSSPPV

IC50 [1] [nM]	IC50 [2] [nM]	IC50 [3] [nM]	IC50 (CDK2/CycE) [nM]	IC50 (CDK1/CycB) [nM]	IC50 [4] [nM]	Compound	IC50 (MaTu-ADR) [nM]
140	< 100	< 100	8	14		C[C@@H](Nc1nc(Nc2ccc(S(=N)(=O)C3CC3)cc2)ncc1Br)C(C)(C)O (mixture of isomers) [Example 1.6, (RS)-S-[4-({5-bromo-4-[(R)-(2-hydroxy-1,2-dimethylpropyl)amino]pyrimidin-2-yl}amino)phenyl]-S-cyclopropylsulfoximide]	< 100
100	110	100	4	5	49	C[C@@H](Nc1nc(Nc2ccc(S(=N)(=O)CC3CC3)cc2)ncc1Br)C(C)(C)O (mixture of isomers) [Example 1.9, (RS)-S-[4-({5-bromo-4-[(R)-(2-hydroxy-1,2-dimethylpropyl)amino]pyrimidin-2-yl}amino)phenyl]-S-(cyclopropylmethyl)sulfoximide]	100
100	< 100	< 100	25	44		C[C@@H](Nc1nc(Nc2ccc(S(=N)(=O)C3CCCC3)cc2)ncc1Br)C(C)(C)O (mixture of isomers) [Example 1.11, (RS)-S-[4-({5-bromo-4-[(R)-(2-hydroxy-1,2-dimethylpropyl)amino]pyrimidin-2-yl}amino)phenyl]-S-cyclopentylsulfoximide]	100
200	400	300	49	160	160	C[C@@H](Nc1nc(Nc2ccc(S(=O)(CCO)=NS(=O)(=O)CC[Si](C)(C)C)cc2)ncc1Br)C(C)(C)O (mixture of isomers) [Example 1.12, (RS)-S-[4-({5-bromo-4-[(R)-(2-hydroxy-1,2-dimethylpropyl)amino]pyrimidin-2-yl}amino)phenyl]-S-(2-hydroxyethyl)-N-[2-(trimethylsilyl)ethylsulfonyl]sulfoximide]	2800
180	200	190	130	170	130	C[C@@H](O)[C@@H](C)Nc1nc(Nc2ccc(S(=O)(CCO)=NS(=O)(=O)CC[Si](C)(C)C)cc2)ncc1Br (mixture of isomers) [Example 1.16, (RS)-S-[4-({5-Bromo-4-[(1R,2R)-(2-hydroxy-1-methyl-propyl)amino]pyrimidin-2-yl}amino)phenyl]-S-(2-hydroxyethyl)-N-[2-(trimethylsilyl)ethylsulfonyl]sulfoximide]	4000
130	< 100	100	6		75	COc1cc(Nc2ncc(Br)c(N[C@H](C)C(C)(C)O)n2)ccc1S(C)(=N)=O (mixture of isomers) [Example 1.23, (RS)-S-[4-({5-bromo-4-[(R)-(2-hydroxy-1,2-dimethylpropyl)amino]pyrimidin-2-yl}amino)-2-methoxyphenyl]-S-methyl sulfoximide]	< 100
	120	200	7	14		CN=S(C)(=O)c1ccc(Nc2ncc(Br)c(N[C@H](C)[C@@H](C)O)n2)cc1 (mixture of isomers) [Example 1.28, (RS)-S-[4-({5-bromo-4-[(1R,2R)-(2-hydroxy-1-methylpropyl)amino]pyrimidin-2-yl}amino)phenyl]-N,S-dimethyl-sulfoximide]	200
300	300	300	19	49		CCOC(=O)N=S(=O)(CC)c1ccc(Nc2ncc(Br)c(O[C@H](C)[C@@H](C)O)n2)cc1 (mixture of isomers) [Example 1.39, (RS)-S-[4-({5-bromo-4-[(1R,2R)-2-hydroxy-1-methylpropoxy]pyrimidin-2-yl}amino)phenyl]-N-(ethoxycarbonyl)-S-ethyl sulfoximide]	900
80	20	20	18	22		CCC(Sc1nc(Nc2ccc(S(C)(=N)=O)cc2)ncc1Br)C(C)O (racemic) [Example 3.6, (RS)-S-[4-({5-bromo-4-[(RS,RS)-(1-ethyl-2-hydroxypropyl)sulfanyl]pyrimidin-2-yl}amino)phenyl]-S-methyl sulfoximide]	20

Compound	IC50 [1] [nM]	IC50 [2] [nM]	IC50 [3] [nM]	IC50 (CDK2/CycE) [nM]	IC50 (CDK1/CycB) [nM]	IC50 [4] [nM]	IC50 (MaTu-ADR) [nM]
C[C@@H](Nc1nc(Nc2ccc(S(=O)(=NS(=O)(=O)CC[Si](C)(C)C)C3CCCC3)cc2)ncc1Br)C(C)(C)O (mixture of isomers) [Example 1.10, (RS)-S-[4-({5-bromo-4-[(R)-(2-hydroxy-1,2-dimethylpropyl)amino]pyrimidin-2-yl}amino)phenyl]-S-cyclopentyl-N-[2-(trimethylsilyl)ethylsulfonyl]sulfoximide]	500	700	800	> 1000	> 1000	910	800
C[C@@H](O)[C@@H](C)Oc1nc(Nc2ccc(S(=O)(CCO)=NS(=O)(=O)CC[Si](C)(C)C)cc2)ncc1Br (mixture of isomers) [Example 1.20, (RS)-S-[4-({5-bromo-4-[(1R,2R)-2-hydroxy-1-methyl-propoxy]pyrimidin-2-yl}amino)phenyl]-S-(2-hydroxyethyl)-N-[2-(trimethylsilyl)ethylsulfonyl]sulfoximide]	200	400	400	54	160	820	2100
